Measured values from US20190284136A1, “INDOLINE DERIVATIVES” (ViiV HEALTHCARE UK LIMITED, priority 2016, published 2019).
Like-named read-outs stand apart in the source and are kept apart here.

Tested on: HIV
Assay: Table 1 IC50 of the examples (assay method not given; patent concerns inhibiting HIV replication)
Type: cell-based

SMILES	IC50	IC50 (Human immunodeficiency virus 1)
COc1c(F)cccc1C(=O)N1CCc2c1cc(C)c([C@H](OC(C)(C)C)C(=O)O)c2-c1cc(F)c2c(c1C)CCCO2 (atropisomer, axis not shown) [Example 45, (S)-2-(tert-Butoxy)-2-((R)-1-(3-fluoro-2-methoxybenzoyl)-4-(8-fluoro-5-methylchroman-6-yl)-6-methylindolin-5-yl)acetic acid]	1 nM	
Cc1cc2c(c(-c3cc(F)c4c(c3C)CCCO4)c1[C@H](OC(C)(C)C)C(=O)O)CCN2C(=O)c1ccc(C(F)(F)F)cc1 (atropisomer, axis not shown) [Example 46, (S)-2-(tert-Butoxy)-2-((R)-4-(8-fluoro-5-methylchroman-6-yl)-6-methyl-1-(4-(trifluoromethyl)benzoyl)indolin-5-yl)acetic acid]		4 nM
Cc1cc(Cl)ccc1C(=O)N1CCc2c1cc(C)c([C@H](OC(C)(C)C)C(=O)O)c2-c1cc(F)c2c(c1C)CCCO2 (atropisomer, axis not shown) [Example 47, (S)-2-(tert-Butoxy)-2-((R)-1-(4-chloro-2-methylbenzoyl)-4-(8-fluoro-5-methylchroman-6-yl)-6-methylindolin-5-yl)acetic acid]		4 nM
Cc1cc(C(=O)N2CCc3c2cc(C)c([C@H](OC(C)(C)C)C(=O)O)c3-c2cc(F)c3c(c2C)CCCO3)ccc1F (atropisomer, axis not shown) [Example 48, (S)-2-(tert-Butoxy)-2-((R)-1-(4-fluoro-3-methylbenzoyl)-4-(8-fluoro-5-methylchroman-6-yl)-6-methylindolin-5-yl)acetic acid]		4 nM
Cc1cc2c(c(-c3cc(F)c4c(c3C)CCCO4)c1[C@H](OC(C)(C)C)C(=O)O)CCN2C(=O)c1cccc(F)c1Cl (atropisomer, axis not shown) [Example 49, (S)-2-(tert-Butoxy)-2-((R)-1-(2-chloro-3-fluorobenzoyl)-4-(8-fluoro-5-methylchroman-6-yl)-6-methylindolin-5-yl)acetic acid]		2 nM
COc1ccc(Cl)cc1C(=O)N1CCc2c1cc(C)c([C@H](OC(C)(C)C)C(=O)O)c2-c1cc(F)c2c(c1C)CCCO2 (atropisomer, axis not shown) [Example 50, (S)-2-(tert-Butoxy)-2-((R)-1-(5-chloro-2-methoxybenzoyl)-4-(8-fluoro-5-methylchroman-6-yl)-6-methylindolin-5-yl)acetic acid]		5 nM
Cc1cc2c(c(-c3cc(F)c4c(c3C)CCCO4)c1[C@H](OC(C)(C)C)C(=O)O)CCN2C(=O)c1cnccc1Cl (atropisomer, axis not shown) [Example 51, (S)-2-(tert-Butoxy)-2-((R)-1-(4-chloronicotinoyl)-4-(8-fluoro-5-methylchroman-6-yl)-6-methylindolin-5-yl)acetic acid]		17 nM
Cc1cc2c(c(-c3cc(F)c4c(c3C)CCCO4)c1[C@H](OC(C)(C)C)C(=O)O)CCN2C(=O)c1cccc(Cl)c1 (atropisomer, axis not shown) [Example 52, (S)-2-(tert-Butoxy)-2-((R)-1-(3-chlorobenzoyl)-4-(8-fluoro-5-methylchroman-6-yl)-6-methylindolin-5-yl)acetic acid]		2 nM
Cc1ccccc1C(=O)N1CCc2c1cc(C)c([C@H](OC(C)(C)C)C(=O)O)c2-c1cc(F)c2c(c1C)CCCO2 (atropisomer, axis not shown) [Example 53, (S)-2-(tert-Butoxy)-2-((R)-4-(8-fluoro-5-methylchroman-6-yl)-6-methyl-1-(2-methylbenzoyl)indolin-5-yl)acetic acid]		3 nM
Cc1cc2c(c(-c3cc(F)c4c(c3C)CCCO4)c1[C@H](OC(C)(C)C)C(=O)O)CCN2C(=O)C1CCCC1 (atropisomer, axis not shown) [Example 54, (S)-2-(tert-Butoxy)-2-((R)-1-(cyclopentanecarbonyl)-4-(8-fluoro-5-methylchroman-6-yl)-6-methylindolin-5-yl)acetic acid]		12 nM
Cc1ccc(F)c(C(=O)N2CCc3c2cc(C)c([C@H](OC(C)(C)C)C(=O)O)c3-c2cc(F)c3c(c2C)CCCO3)c1 (atropisomer, axis not shown) [Example 55, (S)-2-(tert-Butoxy)-2-((R)-1-(2-fluoro-5-methylbenzoyl)-4-(8-fluoro-5-methylchroman-6-yl)-6-methylindolin-5-yl)acetic acid]		6 nM
Cc1cc2c(c(-c3cc(F)c4c(c3C)CCCO4)c1[C@H](OC(C)(C)C)C(=O)O)CCN2C(=O)c1ccc(Cl)c(F)c1 (atropisomer, axis not shown) [Example 56, (S)-2-(tert-Butoxy)-2-((R)-1-(4-chloro-3-fluorobenzoyl)-4-(8-fluoro-5-methylchroman-6-yl)-6-methylindolin-5-yl)acetic acid]		2 nM
Cc1cc2c(c(-c3cc(F)c4c(c3C)CCCO4)c1[C@H](OC(C)(C)C)C(=O)O)CCN2C(=O)c1cc(F)cc(F)c1 (atropisomer, axis not shown) [Example 57, (S)-2-(tert-Butoxy)-2-((R)-1-(3,5-difluorobenzoyl)-4-(8-fluoro-5-methylchroman-6-yl)-6-methylindolin-5-yl)acetic acid]		2 nM
Cc1cc2c(c(-c3cc(F)c4c(c3C)CCCO4)c1[C@H](OC(C)(C)C)C(=O)O)CCN2C(=O)CCc1ccccc1 (atropisomer, axis not shown) [Example 58, (S)-2-(tert-Butoxy)-2-((R)-4-(8-fluoro-5-methylchroman-6-yl)-6-methyl-1-(3-phenyl/propanoyl)indolin-5-yl)acetic acid]		41 nM
Cc1cc2c(c(-c3cc(F)c4c(c3C)CCCO4)c1[C@H](OC(C)(C)C)C(=O)O)CCN2C(=O)c1cccc2c1CCCC2 (atropisomer, axis not shown) [Example 59, (S)-2-(tert-Butoxy)-2-((R)-4-(8-fluoro-5-methylchroman-6-yl)-6-methyl-1-(5,6,7,8-tetrahydronaphthalene-1-carbonyl)indolin-5-yl)acetic acid]		6 nM
Cc1cc2c(c(-c3cc(F)c4c(c3C)CCCO4)c1[C@H](OC(C)(C)C)C(=O)O)CCN2C(=O)c1ccc(F)cc1F (atropisomer, axis not shown) [Example 60, (S)-2-(tert-Butoxy)-2-((R)-1-(2,4-difluorobenzoyl)-4-(8-fluoro-5-methylchroman-6-yl)-6-methylindolin-5-yl)acetic acid]		6 nM
Cc1cc2c(c(-c3cc(F)c4c(c3C)CCCO4)c1[C@H](OC(C)(C)C)C(=O)O)CCN2C(=O)c1ccc(Cl)c(Cl)c1 (atropisomer, axis not shown) [Example 61, (S)-2-(tert-Butoxy)-2-((R)-1-(3,4-dichlorobenzoyl)-4-(8-fluoro-5-methylchroman-6-yl)-6-methylindolin-5-yl)acetic acid]		17 nM
Cc1cc(F)ccc1C(=O)N1CCc2c1cc(C)c([C@H](OC(C)(C)C)C(=O)O)c2-c1cc(F)c2c(c1C)CCCO2 (atropisomer, axis not shown) [Example 62, (S)-2-(tert-Butoxy)-2-((R)-1-(4-fluoro-2-methylbenzoyl)-4-(8-fluoro-5-methylchroman-6-yl)-6-methylindolin-5-yl)acetic acid]		6 nM
COc1cc(OC)cc(C(=O)N2CCc3c2cc(C)c([C@H](OC(C)(C)C)C(=O)O)c3-c2cc(F)c3c(c2C)CCCO3)c1 (atropisomer, axis not shown) [Example 63, (S)-2-(tert-Butoxy)-2-((R)-1-(3,5-dimethoxybenzoyl)-4-(8-fluoro-5-methylchroman-6-yl)-6-methylindolin-5-yl)acetic acid]		4 nM
Cc1cc2c(c(-c3cc(F)c4c(c3C)CCCO4)c1[C@H](OC(C)(C)C)C(=O)O)CCN2C(=O)c1ccc(F)cc1C(F)(F)F (atropisomer, axis not shown) [Example 64, (S)-2-(tert-Butoxy)-2-((R)-1-(4-fluoro-2-(trifluoromethyl)benzoyl)-4-(8-fluoro-5-methylchroman-6-yl)-6-methylindolin-5-yl)acetic acid]		5 nM
Cc1cc2c(c(-c3cc(F)c4c(c3C)CCCO4)c1[C@H](OC(C)(C)C)C(=O)O)CCN2C(=O)C1CCOCC1 (atropisomer, axis not shown) [Example 65, (S)-2-(tert-Butoxy)-2-((R)-4-(8-fluoro-5-methylchroman-6-yl)-6-methyl-1-(tetrahydro-2H-pyran-4-carbonyl)indolin-5-yl)acetic acid]		378 nM
Cc1cc2c(c(-c3cc(F)c4c(c3C)CCCO4)c1[C@H](OC(C)(C)C)C(=O)O)CCN2C(=O)c1cccc(Cl)c1C (atropisomer, axis not shown) [Example 66, (S)-2-(tert-Butoxy)-2-((R)-1-(3-chloro-2-methylbenzoyl)-4-(8-fluoro-5-methylchroman-6-yl)-6-methylindolin-5-yl)acetic acid]		6 nM
COc1cccc(C(=O)N2CCc3c2cc(C)c([C@H](OC(C)(C)C)C(=O)O)c3-c2cc(F)c3c(c2C)CCCO3)c1C (atropisomer, axis not shown) [Example 67, (S)-2-(tert-Butoxy)-2-((R)-4-(8-fluoro-5-methylchroman-6-yl)-1-(3-methoxy-2-methylbenzoyl)-6-methylindolin-5-yl)acetic acid]		5 nM
Cc1cc2c(c(-c3cc(F)c4c(c3C)CCCO4)c1[C@H](OC(C)(C)C)C(=O)O)CCN2C(=O)c1cc(Cl)ccc1Cl (atropisomer, axis not shown) [Example 68, (S)-2-(tert-Butoxy)-2-((R)-1-(2,5-dichlorobenzoyl)-4-(8-fluoro-5-methylchroman-6-yl)-6-methylindolin-5-yl)acetic acid]		13 nM
Cc1ccc(C)c(C(=O)N2CCc3c2cc(C)c([C@H](OC(C)(C)C)C(=O)O)c3-c2cc(F)c3c(c2C)CCCO3)c1 (atropisomer, axis not shown) [Example 69, (S)-2-(tert-Butoxy)-2-((R)-1-(2,5-dimethylbenzoyl)-4-(8-fluoro-5-methylchroman-6-yl)-6-methylindolin-5-yl)acetic acid]		5 nM
Cc1cc2c(c(-c3cc(F)c4c(c3C)CCCO4)c1[C@H](OC(C)(C)C)C(=O)O)CCN2C(=O)c1ccc(Cl)cc1Cl (atropisomer, axis not shown) [Example 70, (S)-2-(tert-Butoxy)-2-((R)-1-(2,4-dichlorobenzoyl)-4-(8-fluoro-5-methylchroman-6-yl)-6-methylindolin-5-yl)acetic acid]		5 nM
